System: G3BP1 NFT2
Type: binding, human
Details: library DMS-BM; bait G3BP1 NFT2; prey CAPRIN1; AQMQGPYNFIQDSM(averaged): mean of the two overlapping peptides over the shared positions

| Substance | DMS position-specific score (PSSM value) per amino-acid substitution, averaged |
| --- | --- |
| AQMQGPYNFIQDSM(averaged) I10P (AQMQGPYNFPQDSM) | 0 |
| AQMQGPYNFIQDSM(averaged) Q2L (ALMQGPYNFIQDSM) | 0.006039 |
| AQMQGPYNFIQDSM(averaged) M3R (AQRQGPYNFIQDSM) | 0.003692 |
| AQMQGPYNFIQDSM(averaged) D12F (AQMQGPYNFIQFSM) | 0.004771 |
| AQMQGPYNFIQDSM(averaged) Y7N (AQMQGPNNFIQDSM) | 0 |
| AQMQGPYNFIQDSM(averaged) A1G (GQMQGPYNFIQDSM) | 0.01098 |
| AQMQGPYNFIQDSM(averaged) M3S (AQSQGPYNFIQDSM) | 0.002665 |
| AQMQGPYNFIQDSM(averaged) P6S (AQMQGSYNFIQDSM) | 0.00881 |
| AQMQGPYNFIQDSM(averaged) A1P (PQMQGPYNFIQDSM) | 0.07411 |
| AQMQGPYNFIQDSM(averaged) D12K (AQMQGPYNFIQKSM) | 0.003093 |
| AQMQGPYNFIQDSM(averaged) N8H (AQMQGPYHFIQDSM) | 0.02395 |
| AQMQGPYNFIQDSM(averaged) M14W (AQMQGPYNFIQDSW) | 0.06336 |
| AQMQGPYNFIQDSM(averaged) S13W (AQMQGPYNFIQDWM) | 0.01323 |
| AQMQGPYNFIQDSM(averaged) Q2R (ARMQGPYNFIQDSM) | 0.001052 |
| AQMQGPYNFIQDSM(averaged) N8Q (AQMQGPYQFIQDSM) | 0.04567 |
| AQMQGPYNFIQDSM(averaged) G5Y (AQMQYPYNFIQDSM) | 0.006993 |
| AQMQGPYNFIQDSM(averaged) M14N (AQMQGPYNFIQDSN) | 0.007055 |
| AQMQGPYNFIQDSM(averaged) M3D (AQDQGPYNFIQDSM) | 0.0976 |
| AQMQGPYNFIQDSM(averaged) G5R (AQMQRPYNFIQDSM) | 0.0001509 |

| Substance | DMS position-specific score (PSSM value) per amino-acid substitution, averaged |
| --- | --- |
| AQMQGPYNFIQDSM(averaged) M3P (AQPQGPYNFIQDSM) | 0.0009459 |
| AQMQGPYNFIQDSM(averaged) Q4K (AQMKGPYNFIQDSM) | 4.484e-5 |
| AQMQGPYNFIQDSM(averaged) D12M (AQMQGPYNFIQMSM) | 0.01204 |
| AQMQGPYNFIQDSM(averaged) Y7M (AQMQGPMNFIQDSM) | 0.001832 |
| AQMQGPYNFIQDSM(averaged) F9Q (AQMQGPYNQIQDSM) | 0.01043 |
| AQMQGPYNFIQDSM(averaged) I10Q (AQMQGPYNFQQDSM) | 0.01591 |
| AQMQGPYNFIQDSM(averaged) M3K (AQKQGPYNFIQDSM) | 0.006729 |
| AQMQGPYNFIQDSM(averaged) Q2A (AAMQGPYNFIQDSM) | 0.04422 |
| AQMQGPYNFIQDSM(averaged) Q4F (AQMFGPYNFIQDSM) | 0.01567 |
| AQMQGPYNFIQDSM(averaged) A1E (EQMQGPYNFIQDSM) | 0.1606 |
| AQMQGPYNFIQDSM(averaged) M3E (AQEQGPYNFIQDSM) | 0.03003 |
| AQMQGPYNFIQDSM(averaged) G5M (AQMQMPYNFIQDSM) | 0.1116 |
| AQMQGPYNFIQDSM(averaged) I10I | 0.4804 |
| AQMQGPYNFIQDSM(averaged) F9H (AQMQGPYNHIQDSM) | 0 |
| AQMQGPYNFIQDSM(averaged) N8K (AQMQGPYKFIQDSM) | 0.007096 |
| AQMQGPYNFIQDSM(averaged) S13K (AQMQGPYNFIQDKM) | 0 |
| AQMQGPYNFIQDSM(averaged) Q4H (AQMHGPYNFIQDSM) | 0.0707 |
| AQMQGPYNFIQDSM(averaged) G5E (AQMQEPYNFIQDSM) | 0.000605 |
| AQMQGPYNFIQDSM(averaged) Q4N (AQMNGPYNFIQDSM) | 0.005313 |

| Substance | DMS position-specific score (PSSM value) per amino-acid substitution, averaged |
| --- | --- |
| AQMQGPYNFIQDSM(averaged) D12Y (AQMQGPYNFIQYSM) | 0.00358 |
| AQMQGPYNFIQDSM(averaged) Y7D (AQMQGPDNFIQDSM) | 0 |
| AQMQGPYNFIQDSM(averaged) M14R (AQMQGPYNFIQDSR) | 0.003652 |
| AQMQGPYNFIQDSM(averaged) G5N (AQMQNPYNFIQDSM) | 0.002472 |
| AQMQGPYNFIQDSM(averaged) M14D (AQMQGPYNFIQDSD) | 0.036 |
| AQMQGPYNFIQDSM(averaged) M14Y (AQMQGPYNFIQDSY) | 0.01132 |
| AQMQGPYNFIQDSM(averaged) M14E (AQMQGPYNFIQDSE) | 0.2115 |
| AQMQGPYNFIQDSM(averaged) P6Y (AQMQGYYNFIQDSM) | 0.1155 |
| AQMQGPYNFIQDSM(averaged) M3I (AQIQGPYNFIQDSM) | 0.03359 |
| AQMQGPYNFIQDSM(averaged) Y7G (AQMQGPGNFIQDSM) | 0.05778 |
| AQMQGPYNFIQDSM(averaged) M14V (AQMQGPYNFIQDSV) | 0.02285 |
| AQMQGPYNFIQDSM(averaged) N8G (AQMQGPYGFIQDSM) | 0.001288 |
| AQMQGPYNFIQDSM(averaged) Q11W (AQMQGPYNFIWDSM) | 0.01601 |
| AQMQGPYNFIQDSM(averaged) S13I (AQMQGPYNFIQDIM) | 0.01393 |
| AQMQGPYNFIQDSM(averaged) Q2V (AVMQGPYNFIQDSM) | 0.04598 |
| AQMQGPYNFIQDSM(averaged) P6E (AQMQGEYNFIQDSM) | 0.004474 |
| AQMQGPYNFIQDSM(averaged) F9W (AQMQGPYNWIQDSM) | 0 |
| AQMQGPYNFIQDSM(averaged) Q4D (AQMDGPYNFIQDSM) | 0.3261 |
| AQMQGPYNFIQDSM(averaged) N8S (AQMQGPYSFIQDSM) | 0.04423 |
